Experimental data as given in patent US20260334439A1, “BCAT2 INHIBITORS” (Agios Pharmaceuticals, Inc., priority 2023, published 2026).
One block for each compound: values may come before it.

Biological target: T1, BCAT2 (Homo sapiens, UniProt O15382)
T1 sequence (O15382 28-392): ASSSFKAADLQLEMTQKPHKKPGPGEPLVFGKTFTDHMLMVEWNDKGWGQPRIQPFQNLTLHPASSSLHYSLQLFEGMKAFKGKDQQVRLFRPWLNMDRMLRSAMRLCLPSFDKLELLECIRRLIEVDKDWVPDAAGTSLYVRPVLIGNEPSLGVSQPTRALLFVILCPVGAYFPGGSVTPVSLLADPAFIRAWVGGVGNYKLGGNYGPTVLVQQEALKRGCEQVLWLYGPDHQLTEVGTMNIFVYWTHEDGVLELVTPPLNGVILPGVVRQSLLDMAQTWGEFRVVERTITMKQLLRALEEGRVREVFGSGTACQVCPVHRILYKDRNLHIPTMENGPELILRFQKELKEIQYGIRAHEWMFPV
Assay: BCAT2 in vitro enzyme inhibition assay (hBCAT2, glutamate dehydrogenase/diaphorase/resazurin coupled fluorescence read)
Type: biochemical
Conditions: hBCAT2, 1 h preincubation at 25° C., one hour reaction; average where tested multiple times
Experimental: • 2×Buffer: 200 mM Tris pH 8.0, 300 mM NaCl, 0.1% BSA • 1.67×hBCAT2 Enzyme Mix: 0.33 μg/mL hBCAT2, 1× Buffer • 2.5×Substrate Mix: 460 µM L-leucine, 420 µM α-KetoGlutarate, 10 U/mL glutamate dehydrogenase, 10 mM NAD, […] diaphorase, […] Resazurin
BCAT2 enzyme stock solution was diluted to prepare a 1.67×hBCAT2 Enzyme Mix. 1 μL of test compound was first added to the reaction wells followed by 30 μL of 1.67×hBCAT2 Enzyme Mix and incubated at room temperature (25° C.) for one hour. Meanwhile the Substrate Mix was prepared. The reaction was initiated by the addition of 20 μL of the 2.5×Substrate Mix, bringing the final reaction mix of all components to 1×. Reactions were quenched after one hour by the addition of 25 μL of 6% SDS and reaction progress was measured via fluorescence read (Ex 540/Em 590).
Test compounds were prepared at 50×final concentration in DMSO, 1 to 3 dilutions were made for 10 points. The compounds were added to the assay as a 1 to 50 dilution (1 μL in 50 μL) to yield a top assay final concentration of 100 μM, decreasing 3-fold for 10 points. Each compound dilution series test also included an assay max (1 μL DMSO Added in lieu of compound, Full Reaction Components Included) and Min (1 μL DMSO Added in lieu of compound, 30 μl of 1.67×hBCAT2 Enzyme Mix replated by 30 μL of 1×Buffer). All tests were performed in technical duplicate.
Where a compound was tested multiple times, the average value of the tests is reported.

- IC50: < 100 nM
Structure (SMILES): COc1ccc(F)cc1C(=O)N[C@H]1CCC[C@@H](n2c(-c3ccccc3F)nc3cnc(-c4nc[nH]n4)cc32)C1 [Example 8, 5-fluoro-N-((1S,3R)-3-(2-(2-fluorophenyl)-6-(1H-1,2,4-triazol-3-yl)-1H-imidazo[4,5-c]pyridin-1-yl)cyclohexyl)-2-methoxybenzamide]

- IC50: < 100 nM
Structure (SMILES): COc1ccc(C(F)(F)F)cc1C(=O)N[C@H]1CCC[C@@H](n2c(-c3ccccc3F)nc3cnc(-c4nc[nH]n4)cc32)C1 [Example 9, N-((1S,3R)-3-(2-(2-fluorophenyl)-6-(1H-1,2,4-triazol-3-yl)-1H-imidazo[4,5-c]pyridin-1-yl)cyclohexyl)-2-methoxy-5-(trifluoromethyl)benzamide]

- IC50: < 100 nM
Structure (SMILES): O=C(N[C@H]1CCC[C@@H](n2c(-c3ccccc3F)nc3cnc(-c4nc[nH]n4)cc32)C1)c1cc(Cl)cnn1 [Example 17, 5-chloro-N-((1S,3R)-3-(2-(2-fluorophenyl)-6-(1H-1,2,4-triazol-3-yl)-1H-imidazo[4,5-c]pyridin-1-yl)cyclohexyl)pyridazine-3-carboxamide]

- IC50: > 1000 nM
Structure (SMILES): CC(C)OCc1nc2cnc(-c3nc[nH]n3)cc2n1[C@@H]1CCC[C@H](NC(=O)c2cc(Cl)ccn2)C1 [Example 20, 4-chloro-N-((1S,3R)-3-(2-(isopropoxymethyl)-6-(1H-1,2,4-triazol-3-yl)-1H-imidazo[4,5-c]pyridin-1-yl)cyclohexyl)picolinamide]

- IC50: 100 to 500 nM
Structure (SMILES): O=C(N[C@H]1CCC[C@@H](n2c(-c3ccccc3F)nc3cnc(N4CCCC4)cc32)C1)c1cc(Cl)ccn1 [Example 28, 4-chloro-N-((1S,3R)-3-(2-(2-fluorophenyl)-6-(pyrrolidin-1-yl)-1H-imidazo[4,5-c]pyridin-1-yl)cyclohexyl)picolinamide]

- IC50: > 1000 nM
Structure (SMILES): CC(C)(Cc1nc2cnc(-c3nc[nH]n3)cc2n1[C@@H]1CCC[C@H](NC(=O)c2cc(Cl)ccn2)C1)C(N)=O [Example 44, N-((1S,3R)-3-(2-(3-amino-2,2-dimethyl-3-oxopropyl)-6-(1H-1,2,4-triazol-3-yl)-1H-imidazo[4,5-c]pyridin-1-yl)cyclohexyl)-4-chloropicolinamide]

- IC50: < 100 nM
Structure (SMILES): COc1ccnc(C(=O)N[C@H]2CCC[C@@H](n3c(-c4ccccc4F)nc4cnc(-c5nc[nH]n5)cc43)C2)c1 [Example 60, N-((1S,3R)-3-(2-(2-fluorophenyl)-6-(1H-1,2,4-triazol-3-yl)-1H-imidazo[4,5-c]pyridin-1-yl)cyclohexyl)-4-methoxypicolinamide]

- IC50: < 100 nM
Structure (SMILES): O=C(N[C@H]1CCC[C@@H](n2c(-c3ccccc3F)nc3cnc(-c4nc[nH]n4)cc32)C1)c1cc(Cl)cc[n+]1[O-] [Example 67, 4-chloro-2-(((1S,3R)-3-(2-(2-fluorophenyl)-6-(1H-1,2,4-triazol-3-yl)-1H-imidazo[4,5-c]pyridin-1-yl)cyclohexyl)carbamoyl)pyridine 1-oxide]

- IC50: < 100 nM
Structure (SMILES): O=C(N[C@H]1CCC[C@@H](n2c(-c3ccccc3F)nc3cnc(-c4nc[nH]n4)cc32)C1)c1ccc(F)cc1F [Example 75, 2,4-difluoro-N-((1S,3R)-3-(2-(2-fluorophenyl)-6-(1H-1,2,4-triazol-3-yl)-1H-imidazo[4,5-c]pyridin-1-yl)cyclohexyl)benzamide]

- IC50: > 1000 nM
Structure (SMILES): CC(Oc1ccccc1-c1nc2cnc(-c3nc[nH]n3)cc2n1[C@@H]1CCC[C@H](NC(=O)c2cc(Cl)ccn2)C1)C(F)(F)F (stereo partly drawn) [Example 91, N-((1S,3R)-3-(6-(1H-1,2,4-triazol-3-yl)-2-(2-((1,1,1-trifluoropropan-2-yl)oxy)phenyl)-1H-imidazo[4,5-c]pyridin-1-yl)cyclohexyl)-4-chloropicolinamide]

- IC50: > 1000 nM
Structure (SMILES): O=C(N[C@H]1CCC[C@@H](n2c(CCC3CCOC3)nc3cnc(-c4nc[nH]n4)cc32)C1)c1cc(Cl)ccn1 (stereo partly drawn) [Example 94, 4-chloro-N-((1S,3R)-3-(2-(2-(tetrahydrofuran-3-yl)ethyl)-6-(1H-1,2,4-triazol-3-yl)-1H-imidazo[4,5-c]pyridin-1-yl)cyclohexyl)picolinamide]

- IC50: > 1000 nM
Structure (SMILES): CC(CCO)Cc1nc2cnc(-c3nc[nH]n3)cc2n1[C@@H]1CCC[C@H](NC(=O)c2cc(Cl)ccn2)C1 (stereo partly drawn) [Example 95, 4-chloro-N-((1S,3R)-3-(2-(4-hydroxy-2-methylbutyl)-6-(1H-1,2,4-triazol-3-yl)-1H-imidazo[4,5-c]pyridin-1-yl)cyclohexyl)picolinamide]

- IC50: > 1000 nM
Structure (SMILES): CC(CCO)Cc1nc2cnc(-c3nc[nH]n3)cc2n1[C@@H]1CCC[C@H](NC(=O)c2cc(Cl)ccn2)C1 (stereo partly drawn) [Example 96, 4-chloro-N-((1S,3R)-3-(2-(4-hydroxy-2-methylbutyl)-6-(1H-1,2,4-triazol-3-yl)-1H-imidazo[4,5-c]pyridin-1-yl)cyclohexyl)picolinamide]

The remaining lines, values behind:

Structure (SMILES): CS(=O)(=O)c1ccc(Cl)cc1C(=O)N[C@H]1CCC[C@@H](n2c(-c3ccccc3F)nc3cnc(-c4nc[nH]n4)cc32)C1 [Example 12, 5-chloro-N-((1S,3R)-3-(2-(2-fluorophenyl)-6-(1H-1,2,4-triazol-3-yl)-1H-imidazo[4,5-c]pyridin-1-yl)cyclohexyl)-2-(methylsulfonyl)benzamide]
- IC50: > 1000 nM

Structure (SMILES): CCNCc1nc2cnc(-c3nc[nH]n3)cc2n1[C@@H]1CCC[C@H](NC(=O)c2cc(Cl)ccn2)C1 [Example 38, 4-chloro-N-((1S,3R)-3-(2-((ethylamino)methyl)-6-(1H-1,2,4-triazol-3-yl)-1H-imidazo[4,5-c]pyridin-1-yl)cyclohexyl)picolinamide]
- IC50: > 1000 nM

Structure (SMILES): Nc1ccc(Cl)cc1C(=O)N[C@H]1CCC[C@@H](n2c(-c3ccccc3F)nc3cnc(-c4nc[nH]n4)cc32)C1 [Example 41, 2-amino-5-chloro-N-((1S,3R)-3-(2-(2-fluorophenyl)-6-(1H-1,2,4-triazol-3-yl)-1H-imidazo[4,5-c]pyridin-1-yl)cyclohexyl)benzamide]
- IC50: 100 to 500 nM

Structure (SMILES): NCCOc1ccc(Cl)cc1C(=O)N[C@H]1CCC[C@@H](n2c(-c3ccccc3F)nc3cnc(-c4nc[nH]n4)cc32)C1 [Example 42, 2-(2-aminoethoxy)-5-chloro-N-((1S,3R)-3-(2-(2-fluorophenyl)-6-(1H-1,2,4-triazol-3-yl)-1H-imidazo[4,5-c]pyridin-1-yl)cyclohexyl)benzamide]
- IC50: < 100 nM

Structure (SMILES): CC(C)(C#N)Cc1nc2cnc(-c3nc[nH]n3)cc2n1[C@@H]1CCC[C@H](NC(=O)c2cc(Cl)ccn2)C1 [Example 43, 4-chloro-N-((1S,3R)-3-(2-(2-cyano-2-methylpropyl)-6-(1H-1,2,4-triazol-3-yl)-1H-imidazo[4,5-c]pyridin-1-yl)cyclohexyl)picolinamide]
- IC50: 500 to 1000 nM

Structure (SMILES): N#Cc1ccccc1-c1nc2cnc(-c3nc[nH]n3)cc2n1[C@@H]1CCC[C@H](NC(=O)c2cc(F)ccn2)C1 [Example 46, N-((1S,3R)-3-(2-(2-cyanophenyl)-6-(1H-1,2,4-triazol-3-yl)-1H-imidazo[4,5-c]pyridin-1-yl)cyclohexyl)-4-fluoropicolinamide]
- IC50: < 100 nM

Structure (SMILES): CC(C)COc1ccc(Cl)cc1C(=O)N[C@H]1CCC[C@@H](n2c(-c3ncccc3F)nc3cnc(-c4nc[nH]n4)cc32)C1 [Example 48, 5-chloro-N-((1S,3R)-3-(2-(3-fluoropyridin-2-yl)-6-(1H-1,2,4-triazol-3-yl)-1H-imidazo[4,5-c]pyridin-1-yl)cyclohexyl)-2-isobutoxybenzamide]
- IC50: < 100 nM

Structure (SMILES): CC(C)Cc1nc2cnc(-c3nc[nH]n3)cc2n1[C@@H]1CCC[C@H](NC(=O)c2cc(Cl)ccc2OC2CC2)C1 [Example 79, 5-chloro-2-cyclopropoxy-N-((1S,3R)-3-(2-isobutyl-6-(1H-1,2,4-triazol-3-yl)-1H-imidazo[4,5-c]pyridin-1-yl)cyclohexyl)benzamide]
- IC50: < 100 nM

Structure (SMILES): O=C(N[C@H]1CCC[C@@H](n2c(-c3ccccc3OC3CCOC3)nc3cnc(-c4nc[nH]n4)cc32)C1)c1cc(Cl)ccn1 (stereo partly drawn) [Example 87, 4-chloro-N-((1S,3R)-3-(2-(2-((tetrahydrofuran-3-yl)oxy)phenyl)-6-(1H-1,2,4-triazol-3-yl)-1H-imidazo[4,5-c]pyridin-1-yl)cyclohexyl)picolinamide]
- IC50: > 1000 nM

Structure (SMILES): CC(Oc1ccccc1-c1nc2cnc(-c3nc[nH]n3)cc2n1[C@@H]1CCC[C@H](NC(=O)c2cc(Cl)ccn2)C1)C(F)(F)F (stereo partly drawn) [Example 92, N-((1S,3R)-3-(6-(1H-1,2,4-triazol-3-yl)-2-(2-((1,1,1-trifluoropropan-2-yl)oxy)phenyl)-1H-imidazo[4,5-c]pyridin-1-yl)cyclohexyl)-4-chloropicolinamide]
- IC50: > 1000 nM
